# What was measured:
# Assay in all cases: relative viability (nuclei count vs DMSO), 5 days (fraction); higher = more cells survive
# LC-2-ad = test system: LC-2-ad
# Outline: (§1)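 Relative viability divides the nuclei count in treated wells by that in vehicle wells. Lung cancer cell lines were seeded in 1536-well plates, dosed by pin tool the next day, and fixed and stained after 5 days in one step with final 0.05% Triton X-100, 1% formaldehyde and 1 ug/ml Hoechst. Dosing was a single drug or a fixed anchor-drug dose plus five library-drug doses (not always all listed) in √10 steps, and values are medians of duplicate plates imaged at 4×.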
# NCI-H2126 = test system: NCI-H2126
# Outline: as §1
# LCLC-103H = test system: LCLC-103H
# Outline: as §1
# NCI-H1793 = test system: NCI-H1793
# Outline: as §1
# NCI-H1648 = test system: NCI-H1648
# Outline: as §1
# NCI-H2023 = test system: NCI-H2023
# Outline: as §1
# NCI-H1395 = test system: NCI-H1395
# Outline: as §1
# SW 900 = test system: SW 900
# Outline: as §1
# NCI-H1651 = test system: NCI-H1651
# Outline: as §1
# EMC-BAC-2 = test system: EMC-BAC-2
# Outline: as §1
# PC-14 = test system: PC-14
# Outline: as §1
# H3255 = test system: H3255
# Outline: as §1
# RERF-LC-KJ = test system: RERF-LC-KJ
# Outline: as §1
# NCI-H2009 = test system: NCI-H2009
# Outline: as §1
# NCI-H661 = test system: NCI-H661
# Outline: as §1
# UMC-11 = test system: UMC-11
# Outline: as §1
# COR-L 105 = test system: COR-L 105
# Outline: as §1
# ABC-1 = test system: ABC-1
# Outline: as §1
# NCI-H1755 = test system: NCI-H1755
# Outline: as §1
# EKVX = test system: EKVX
# Outline: as §1
# CAL-12T = test system: CAL-12T
# Outline: as §1
# NCI-H2087 = test system: NCI-H2087
# Outline: as §1
compound,measurement,setting,value
Oc1nc(-c2ccc(C(F)(F)F)cc2)nc2c1CSCC2 [XAV939] + CC(=O)c1c(C)c2cnc(Nc3ccc(N4CCNCC4)cn3)nc2n(C2CCCC2)c1=O [Palbociclib] (partner 0.5 µM),relative viability,LC-2-ad; first compound 0.08 µM,0.502
same,relative viability,LC-2-ad; first compound 0.253 µM,0.397
same,relative viability,LC-2-ad; first compound 0.8 µM,0.462
same,relative viability,LC-2-ad; first compound 2.53 µM,0.478
same,relative viability,NCI-H2126; first compound 0.08 µM,0.301
same,relative viability,NCI-H2126; first compound 0.253 µM,0.352
same,relative viability,NCI-H2126; first compound 0.8 µM,0.35
same,relative viability,NCI-H2126; first compound 2.53 µM,0.336
same,relative viability,LCLC-103H; first compound 0.08 µM,0.53
same,relative viability,LCLC-103H; first compound 0.253 µM,0.499
same,relative viability,LCLC-103H; first compound 0.8 µM,0.514
same,relative viability,LCLC-103H; first compound 2.53 µM,0.449
same,relative viability,NCI-H1793; first compound 0.08 µM,0.353
same,relative viability,NCI-H1793; first compound 0.253 µM,0.317
same,relative viability,NCI-H1793; first compound 0.8 µM,0.307
same,relative viability,NCI-H1793; first compound 2.53 µM,0.281
same,relative viability,NCI-H1648; first compound 0.253 µM,0.28
same,relative viability,NCI-H1648; first compound 0.8 µM,0.27
same,relative viability,NCI-H1648; first compound 2.53 µM,0.216
same,relative viability,NCI-H2023; first compound 0.08 µM,0.405
same,relative viability,NCI-H2023; first compound 0.253 µM,0.291
same,relative viability,NCI-H2023; first compound 0.8 µM,0.328
same,relative viability,NCI-H2023; first compound 2.53 µM,0.295
same,relative viability,NCI-H1395; first compound 0.08 µM,0.644
same,relative viability,NCI-H1395; first compound 0.253 µM,0.575
same,relative viability,NCI-H1395; first compound 0.8 µM,0.569
same,relative viability,NCI-H1395; first compound 2.53 µM,0.568
same,relative viability,SW 900; first compound 0.253 µM,0.539
same,relative viability,SW 900; first compound 0.8 µM,0.56
same,relative viability,SW 900; first compound 2.53 µM,0.285
same,relative viability,NCI-H1651; first compound 0.08 µM,0.566
same,relative viability,NCI-H1651; first compound 0.253 µM,0.521
same,relative viability,NCI-H1651; first compound 0.8 µM,0.529
same,relative viability,NCI-H1651; first compound 2.53 µM,0.462
same,relative viability,EMC-BAC-2; first compound 0.08 µM,0.555
same,relative viability,EMC-BAC-2; first compound 0.253 µM,0.491
same,relative viability,EMC-BAC-2; first compound 0.8 µM,0.478
same,relative viability,EMC-BAC-2; first compound 2.53 µM,0.338
same,relative viability,PC-14; first compound 0.08 µM,0.723
same,relative viability,PC-14; first compound 0.253 µM,0.47
same,relative viability,PC-14; first compound 0.8 µM,0.451
same,relative viability,PC-14; first compound 2.53 µM,0.375
same,relative viability,H3255; first compound 0.08 µM,0.311
same,relative viability,H3255; first compound 0.253 µM,0.317
same,relative viability,H3255; first compound 0.8 µM,0.314
same,relative viability,H3255; first compound 2.53 µM,0.291
same,relative viability,RERF-LC-KJ; first compound 0.08 µM,1.13
same,relative viability,RERF-LC-KJ; first compound 0.253 µM,0.828
same,relative viability,RERF-LC-KJ; first compound 0.8 µM,1.02
same,relative viability,RERF-LC-KJ; first compound 2.53 µM,0.761
same,relative viability,NCI-H2009; first compound 0.08 µM,0.275
same,relative viability,NCI-H2009; first compound 0.253 µM,0.239
same,relative viability,NCI-H2009; first compound 0.8 µM,0.188
same,relative viability,NCI-H2009; first compound 2.53 µM,0.317
same,relative viability,NCI-H661; first compound 0.08 µM,0.407
same,relative viability,NCI-H661; first compound 0.253 µM,0.394
same,relative viability,NCI-H661; first compound 0.8 µM,0.409
same,relative viability,NCI-H661; first compound 2.53 µM,0.388
same,relative viability,UMC-11; first compound 0.08 µM,0.326
same,relative viability,UMC-11; first compound 0.253 µM,0.287
same,relative viability,UMC-11; first compound 0.8 µM,0.355
same,relative viability,UMC-11; first compound 2.53 µM,0.232
same,relative viability,COR-L 105; first compound 0.08 µM,0.403
same,relative viability,COR-L 105; first compound 0.253 µM,0.399
same,relative viability,COR-L 105; first compound 0.8 µM,0.43
same,relative viability,COR-L 105; first compound 2.53 µM,0.397
same,relative viability,ABC-1; first compound 0.253 µM,0.587
same,relative viability,ABC-1; first compound 0.8 µM,0.578
same,relative viability,ABC-1; first compound 2.53 µM,0.343
same,relative viability,NCI-H1755; first compound 0.08 µM,0.439
same,relative viability,NCI-H1755; first compound 0.253 µM,0.341
same,relative viability,NCI-H1755; first compound 0.8 µM,0.458
same,relative viability,NCI-H1755; first compound 2.53 µM,0.414
same,relative viability,EKVX; first compound 0.08 µM,0.383
same,relative viability,EKVX; first compound 0.253 µM,0.343
same,relative viability,EKVX; first compound 0.8 µM,0.34
same,relative viability,EKVX; first compound 2.53 µM,0.227
same,relative viability,CAL-12T; first compound 0.08 µM,0.465
same,relative viability,CAL-12T; first compound 0.253 µM,0.342
same,relative viability,CAL-12T; first compound 0.8 µM,0.263
same,relative viability,CAL-12T; first compound 2.53 µM,0.209
same,relative viability,NCI-H2087; first compound 0.08 µM,0.325
same,relative viability,NCI-H2087; first compound 0.253 µM,0.182
same,relative viability,NCI-H2087; first compound 0.8 µM,0.224
same,relative viability,NCI-H2087; first compound 2.53 µM,0.164

# — the supplement of paper PMC10307832
